Consider one molecule from US20240252486A1, “ALGOSTATIC AGENTS FOR PREVENTING TRANSITION FROM ACUTE TO CHRONIC PAIN” (The Regents of the University of California, priority 2021, published 2024).

For test [1] the following is noted: as effectively as does ARN077; cited from earlier work.
Test [2] in a line: Body-weight gain after formalin. Type of test: in vivo, mouse. The settings on record: ARN19702 30 mg-kg^−1 IP once daily for 3 days starting 24 h after formalin; PFD14.
Test [3] deals with formalin-injected mice. Briefly: Ex vivo diffusion tensor imaging of spinal cord and forebrain. The settings on record: ARN19702 30 mg-kg^−1 IP once daily for 3 days starting 24 h after formalin; PFD14. The class given is in vivo, mouse. As to the method: Magnetic Resonance Imaging (MRI) acquisition: Mice were anesthetized, flushed intracardially with ice-cold PBS and then with 4% PAF in PBS (pH 7.4). Brains and spinal cords were removed within their osseous structures and post-fixed overnight in 4% PAF, followed by three 5-min washes with PBS the next day, and stored in PBS (pH 7.4) containing sodium azide (0.02%, weight) at 4 °C. Ex vivo diffusion tensor imaging (DTI) and T2 weighted imaging ([…]) studies were performed using a 9.4 T Bruker Avance imager (Bruker Biospin, Billerica, USA). Data were acquired with the following parameters: 1.5 cm field of view, 0.5 mm slice thickness, and a 128×128 acquisition matrix and zero filled to 256×256. DTI parameters were as follows: repetition time (TR)/echo time (TE)=8000 ms/35.66 ms, 30 isolinear directions, B=[…], and 5 B0 images acquired prior to weighted images. […] parameters were TR/TE=4000/10 ms with 10 equally spaced echoes. Brain: We used 3D automatic registration for unbiased region parcellation to analyze DTI metrics in brain structures. Scans underwent eddy current correction and brain was digitally removed from surrounding skull and muscles using 3D Pulse-Coupled Neural Networks (PCNN3D v1.2) in MATLAB R2017a (MathWorks). […] The resultant maps were then analyzed in DSI studio (http://dsi-studio.labsolver.org). […]

The subject of test [4] is formalin-injected mice. In words: Conditioned place preference (spontaneous/ongoing pain) after formalin. Type of test: in vivo, mouse. The settings on record: ARN19702 30 mg-kg^−1 IP once daily for 3 days starting 24 h after formalin; PFD14. As for the experimental part:
Preconditioning: 12 days after tissue damage, mice were placed in the two chamber CPP apparatus (for details see (63)) and the time spent in each chamber was recorded for 10 min and analyzed to determine preconditioning baseline.
Conditioning: Mice underwent single trial conditioning 24 h after preconditioning using a biased approach. In the morning of the conditioning day, animals received saline and were immediately placed into the preferred chamber (saline paired) of the CPP box for 30 min, with no access to the other chambers. Approximately 4 h later, mice received gabapentin (50 mg-kg^−1, IP) and were immediately confined in the non-preferred chamber for 30 min (gabapentin paired).
Preference test: On the test day (POD14 or PFD14), 12 h after the afternoon pairing, mice were placed back into the center of the CPP chambers with free access to all chambers for 10 min. Time (s) spent in each chamber was recorded and evaluated by a blind observer to determine preference.

In test [5] the test system is formalin-injected mice. Briefly: Formalin test: acute nocifensive behavior. The settings on record: pretreatment; ARN16186 10 mg-kg^−1 IP, ARN19702 30 mg-kg^−1 IP; wild-type mice, 1% formalin.
Test [6] has as its system formalin-injected mice. In words: 24-h novel object recognition test (long-term memory) after formalin. Type of test: in vivo, mouse. The settings on record: ARN19702 30 mg-kg^−1 IP once daily for 3 days starting 24 h after formalin; PFD14. As to the method: The test was conducted over 3 days.
The test was conducted over 3 days. […] The discriminatory index was calculated as follows: […]

As for `CCS(=O)(=O)c1ccccc1C(=O)N1CCN(c2nc3ccc(F)cc3s2)C[C@@H]1C` [ARN19702], the “nociceptive behavior evoked by formalin or CCI” value in test [1] is given as “suppresses”. Moreover, the body-weight gain entry in test [2] is “normalizing”. Also, the “CPLS-associated changes in spinal and forebrain DTI measures” value in the test with formalin-injected mice [3] was “reversing”. In addition, the ongoing pain entry with formalin-injected mice [4] was “normalizing”. In addition, the “nocifensive response to formalin” value with formalin-injected mice [5] is reported as “prevents”. In addition, the memory deficits entry in the test with formalin-injected mice [6] was “normalizing”.
